Measured values reported in patent publication US5059596A, “Azabicyclo compounds” (Roussel Uclaf, priority 1989, dated 1991).
Read-outs that look alike come from different tables or passages of the source.

Experiments:
5-lipoxygenase = molecular target: T1, 5-lipoxygenase (Cavia porcellus, UniProt A0A286X958); experiment: inhibition of eicosanoid synthesis by guinea pig peritoneal neutrophils: 5-lipoxygenase product (5-HETE) synthesis; format: cell-based; details: [^14 C]-arachidonic acid and calcium ionophore
T1 construct: synthesis of eicosanoids by guinea pig peritoneal neutrophils; endogenous in cells; host or cells: guinea pig peritoneal neutrophils
T1 sequence (A0A286X958 1-674): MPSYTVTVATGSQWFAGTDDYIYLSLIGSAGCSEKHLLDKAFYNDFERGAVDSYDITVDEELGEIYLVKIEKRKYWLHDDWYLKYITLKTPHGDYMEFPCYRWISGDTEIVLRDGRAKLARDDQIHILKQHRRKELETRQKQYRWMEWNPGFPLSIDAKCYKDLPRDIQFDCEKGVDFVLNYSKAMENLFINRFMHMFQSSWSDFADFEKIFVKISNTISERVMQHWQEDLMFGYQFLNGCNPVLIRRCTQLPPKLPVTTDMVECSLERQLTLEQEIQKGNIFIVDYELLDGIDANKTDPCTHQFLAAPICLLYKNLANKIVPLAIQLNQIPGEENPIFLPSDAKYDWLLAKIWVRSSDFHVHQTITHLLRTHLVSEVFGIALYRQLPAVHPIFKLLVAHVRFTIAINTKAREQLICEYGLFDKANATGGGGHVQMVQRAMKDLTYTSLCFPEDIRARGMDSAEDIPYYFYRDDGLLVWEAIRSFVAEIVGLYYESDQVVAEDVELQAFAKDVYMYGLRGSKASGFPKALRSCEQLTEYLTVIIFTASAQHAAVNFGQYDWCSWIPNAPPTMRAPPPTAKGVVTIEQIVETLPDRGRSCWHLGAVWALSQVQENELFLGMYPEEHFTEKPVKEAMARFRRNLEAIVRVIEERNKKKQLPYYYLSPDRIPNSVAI
Description: (§1) The compounds were tested for their activity as inhibitors of the synthesis of eicosanoids by guinea pig peritoneal neutrophils following the addition of [^14 C]-arachidonic acid and calcium ionophore, using a modification of the method published by Harvey et al [J. Pharmacol. Methods, Vol. 9(2), p 147-155 (1983)].

cyclooxygenase = experiment: inhibition of eicosanoid synthesis by guinea pig peritoneal neutrophils: cyclooxygenase product (TX B2 and 5-HHT) synthesis; format: cell-based; details: [^14 C]-arachidonic acid and calcium ionophore
Description: as §1

IC50 (5-lipoxygenase): > 100 µM
IC50 (cyclooxygenase; 5-HHT synthesis, read-out: IC50 (5-HHT)): 6.3 µM
IC50 (cyclooxygenase; TXB2 synthesis, read-out: IC50 (TXB2)): 5 µM
Structure (SMILES): CCSC12ON=C(c3ccc(OC)cc3)N1C(C)(C)C2(C)C (stereo not drawn) [compound 4, 3-(p-methoxyphenyl)-5,5,6,6-tetramethyl-7-ethylthio-1-oxa-2,4-diazabicyclo[3.2.0]hept-2-ene]
